From patent US20210087222A1, “COMPOUNDS FOR TREATING NEURODEGENERATIVE DISORDERS” (ETHNODYNE, priority 2017, published 2021)

Assays:
[1] = tested on: primary rat motor neurons injured with glutamate; experiment: Primary motor neuron culture survival after glutamate injury (in vitro ALS model); assay type: cell-based
Method: The aim of this study was to study the effect of CR591 on primary motor neuron culture from rat spinal cord (SC) injured by glutamate exposure (a well validated in vitro ALS model and model of motor neuron diseases).
Rat SC motor neurons were cultured as described by Martinou et al., Neuron. 1992 April; 8(4):737-44 and Wang et al., Hum Mol Genet. 2013 Dec. 1; 22(23):4706-19. Briefly, pregnant female rats (Wistar, Janvier labs) of 14 days gestation were killed by cervical dislocation. […] Cells were then centrifuged at 180 g for 10 min at +4° C. on a layer of BSA (3.5%) in L15 medium. […] The medium was changed every day.
The following conditions were assessed: • Control • + glutamate (5 μM 20 mn then 48 h) • + glutamate (5 μM 20 mn then 48 h)+CR591 1 pmol/L • + glutamate (5 μM 20 mn then 48 h)+CR591 10 pmol/L • + glutamate (5 μM 20 mn then 48 h)+CR591 100 pmol/L • + glutamate (5 μM 20 mn then 48 h)+CR591 1 nmol/L • + glutamate (5 μM 20 mn then 48 h)+CR591 10 nmol/L • + glutamate (5 μM 20 mn then 48 h)+CR591 100 nmol/L • + glutamate (5 μM 20 mn then 48 h)+CR591 1 μmol/L • + glutamate (5 μM 20 mn then 48 h)+CR591 10 μmol/L […]
For each condition, 6 wells were assessed, 30 pictures per well were taken using ImageXpress (Molecular Devices) with 20× magnification, to assess motor neuron survival (MAP-2). […]

[2] = tested on: Human MRC-5 cell line derived from normal lung tissue; experiment: Cytotoxicity test, MTS cell growth inhibition assay; assay type: cell-based; details: MRC-5 cells, 72 h incubation, 8 concentrations, FIG. 1a
Method: (§1) Human MRC-5 cell line derived from normal lung tissue and human HCT-116 colorectal carcinoma were obtained from the American Type Culture Collection (ATCC, Rockville, Md.). Primary Human Umbilical Vein Endothelial Cells (HUVEC) isolated from the vein of the umbilical cord were obtained from Promocell (Germany). Cell lines were cultured according to the supplier's instructions. Human HCT-116 cells were grown in Gibco McCoy's 5A supplemented with 10% fetal calf serum (FCS) and 1% glutamine. Human MRC-5 cells were grown in DMEM supplemented with 10% fetal calf serum (FCS) and 1% glutamine. HUVECs were grown in Endothelial Cell Growth Medium 2 which is low-serum (2% V/V) media optimized for the cultivation of endothelial cells from large blood vessels.
(§2) Cells were counted using a Vi-cell XR (Beckman Coulter) and their viability assessed by 0.25% trypan blue dye exclusion. They were tested for the presence of mycoplasma before experiments with the Mycoplasma PCR Detection Kit (Applied Biological Materials Inc., Canada) in accordance with the manufacturer instructions and only mycoplasma-free cells were used for further investigations.
(§3) Cell lines were maintained at 37° C. in a humidified atmosphere containing 5% CO2. Cell growth inhibition was determined by an MTS assay according to the manufacturer's instructions (Promega, Madison, Wis., USA). […] After 24 h of culture, the cells were treated with the compound CR591 of example 1 at 8 different final concentrations. Each concentration was obtained from serial dilutions in culture medium starting from the stock solution. Control cells were treated with the vehicle. Experiments were performed in triplicate.
(§4) After 72 h of incubation, 20 μL of CellTiter 96® AQueous One Solution Reagent was added for 2 h before recording absorbance 490 nm with a spectrophotometric plate reader. The dose-response curves were plotted with Graph Prism software and the IC50 values were calculated using the Graph Prism software from polynomial curves (four or five-parameter logistic equations).

[3] = tested on: Primary Human Umbilical Vein Endothelial Cells (HUVEC); experiment: as above; assay type: cell-based; details: 72 h incubation, 8 concentrations, FIG. 1c
Method: as §1, §2, §3, §4

[4] = tested on: human HCT-116 colorectal carcinoma; experiment: as above; assay type: cell-based; details: HCT-116 cells, 72 h incubation, 8 concentrations, FIG. 1b
Method: as §1, §2, §3, §4

[5] = tested on: OPC (precursor cells of oligodendrocytes) in primary cocultures of central neurons and oligodendrocytes; experiment: In vitro MS (myelination) model, OPC number (A2B5 positive cells) at day 12; assay type: cell-based, rat; details: 12 days treatment
Method: (§5) A reproducible in vitro myelination model based on primary cocultures of central neurons and oligodendrocytes culturing in 96-well plate is used and adapted to high throughput screening.
(§6) Neurons/oligodendrocytes were cultured as previously described by Charles et al., 2000. PNAS 97 7585-7590.
Briefly, pregnant Wistar female rats of 17 days gestation were killed by cervical dislocation (Janvier Labs, France) and the foetuses removed from the uterus. The forebrains were removed and placed in ice-cold medium of Leibovitz (L15; Pan Biotech, Germany) containing 2% of Penicillin-Streptomycin (Batch 1451013, PanBiotech) and 1% of bovine serum albumin (BSA) (Batch K180713, Pan Biotech). Cortexes were dissociated by trypsinisation for 20 min at 37° C., with Trypsin EDTA 1X (Batch 7310713, PanBiotech). The reaction was stopped by the addition of Dulbecco's modified Eagle's medium (DMEM) (Batch 9710913, PanBiotech) containing DNAase I grade II at 0.1 mg/mL (Batch H131108, PanBiotech) and 10% of foetal calf serum (Batch 41Q7218K, Invitrogen, France). […]
(§7) The immunolabeled cultures were automatically examined with ImageXpress (Molecular Devices) equipped with a LED at ×20 magnification. […] Number of A2B5 positive cells and number of MAG positive cells were automatically analyzed by using Custom module editor (Molecular Devices). […] All values were expressed as mean+/−SEM (s.e.mean) of the 6 wells. […]

[6] = tested on: MAG positive cells (OL) in primary cocultures of central neurons and oligodendrocytes; experiment: In vitro MS (myelination) model, MAG evaluation at day 18; assay type: cell-based, rat; details: 18 days of treatment, bell shape curve
Method: as §5, §6
Briefly, pregnant Wistar female rats of 17 days gestation were killed by cervical dislocation (Janvier Labs, France) and the foetuses removed from the uterus. The forebrains were removed and placed in ice-cold medium of Leibovitz (L15; Pan Biotech, Germany) containing 2% of Penicillin-Streptomycin (Batch 1451013, PanBiotech) and 1% of bovine serum albumin (BSA) (Batch K180713, Pan Biotech). Cortexes were dissociated by trypsinisation for 20 min at 37° C., with Trypsin EDTA 1X (Batch 7310713, PanBiotech). The reaction was stopped by the addition of Dulbecco's modified Eagle's medium (DMEM) (Batch 9710913, PanBiotech) containing DNAase I grade II at 0.1 mg/mL (Batch H131108, PanBiotech) and 10% of foetal calf serum (Batch 41Q7218K, Invitrogen, France). Cells were then mechanically dissociated by 3 passages through a 10 mL pipette. Cells were centrifuged at 180×g for 10 min at 4° C. temperature on a layer of BSA (3.5%) in L15 medium. The supernatant was discarded and cells of the pellet were re-suspended in DMEM containing 10% of FCS. […] The supernatant was discarded and cells of pellet were re-suspended in a culture medium consisting of Neurobasal (Batch 1625353, Invitrogen) supplemented with 2% of B27 (Batch 1618508, Invitrogen), 2 mM of L-glutamine (Batch 6620314, PanBiotech), 2% of PS solution, 1% of foetal calf serum (FCS) and 10 ng/mL of platelet-derived growth factor (PDGF-AA) (Batch H131205, PanBiotech). […]
as §7

SMILES | motor neuron death ([1]; glutamate 5 μM for 20 min, read 48 h later, versus control = 100%) [%] | toxicity (cell growth inhibition) [2] | toxicity (cell growth inhibition) [3] | toxicity (cell growth inhibition) [4] | OPC number (A2B5 positive cells) ([5]; 1 pmol/L to 10 μmol/L, FIG. 2) | total number of OPCs at the highest doses ([5]; highest doses, inhibition of proliferation or toxic effect) | concentration of maximal effect on MAG positive cells / myelination [6] [nM] | number of MAG positive cells ([6]; FIG. 3a) | myelination of neurons by OL (area of MAG expression) ([6]; FIG. 3b) | protective effect of motor neuron (survival, MAP-2) ([1]; added 1 h before glutamate (5 μM 20 min, then 48 h), between 1 nM and 10 nM, FIG. 4)
N[C@@H](CCC(=O)O)C(=O)O [Glutamate, glutamate, reference compound] | > 30 | – | – | – | – | – | – | – | – | –
CC1=C(CO)C(=O)O[C@@H]([C@@H](C)[C@H]2CCC3C4C[C@H](SC[C@H](N)C(=O)O)[C@]5(O)[C@@H](O)C=CC(=O)[C@]5(C)C4CC[C@@]32C)C1 (stereo partly shown) [CR591] | – | does not show any toxicity | does not show any toxicity | does not show any toxicity | did not show any significant increase | decrease of the total number of OPCs was observed | 1 | able to increase the number of MAG positive cells | significantly improved the myelination of neurons by OL | moderate and significant protective effect
